PubChem BioAssay AID2060488 (Molecular Pharmacology Branch, DTP, NCI, 2025)

Test system: 966289-007-R4-J1-PDC complex spheroid viability
Assay: Anticancer human tumor 966289-007-R4-J1-PDC patient-derived pancreatic adenocarcinoma cell line growth inhibition [GQUAD]
Conditions: for IC50: curve of first compound; for viability, T/C: stronger effect = lower value
Source text: DNA G-quadruplex Stabilizer Agents in Combinations in Complex Spheroids
A high-throughput screen of multi-cell type tumor spheroids was designed to identify active combinations of DNA G-quadruplex stabilizer agents and targeted small molecules. Complex spheroids include a stromal component modeled by human endothelial cells (HUVEC) and fibroblasts modeled by human mesenchymal stem cells (MSCs). The concentration ranges selected for each drug and investigational agent were based upon clinically achievable concentrations if the clinical Cmax of the agent was known.
Compounds. The drugs and investigational agents: pidnarulex (CX-5461; NSC782164), APTO-253 (NSC789042), BRACO-19 (NSC847499), peposertib (NSC802822), ceralasertib (NSC780249), elimusertib (NSC800525), camonsertib (NSC841442), AZD-1390 (NSC803789), olaparib (NSC753686), talazoparib (NSC767125), ART-558 (NSC835418), sotorasib (NSC818433), MRTX-1133 (NSC836407), SN-38 (NSC673596), topotecan (NSC609699), etoposide (NSC141540), doxorubicin (NSC123127), gemcitabine (NSC613327), 5-fluorouracil (NSC19893), paclitaxel (NSC125973), vemurafenib (NSC761431), panobinostat (NSC761190), R-306465 (JNJ-16241199; NSC773264), adavosertib (NSC754352), TP-3654 (NSC805149), carboplatin (NSC241240), KSQ-4279 (NSC840948), and staurosporine (NSC755774) were obtained from the National Cancer Institute (NCI) Developmental Therapeutics Program Chemical Repository (34). The FDA-approved anticancer drug set is available from the NCI Developmental Therapeutics Program. […] The stock solutions were prepared in dimethyl sulfoxide (DMSO, Sigma-Aldrich, St. Louis, MO, cat. D2650) at 800-fold the tested concentration and stored at -70 degrees C prior to their use. All drugs and investigational agents were tested over a range starting from a high concentration at or near the clinical Cmax and decreasing in half-log increments. If the clinical Cmax for an agent had not been determined, the highest concentration tested was 10 microM.
2.3 Cell Culture. All cells were maintained in an incubator at 37 degrees C and 5% CO2 with 95% humidity. The PDC lines were cultured according to standard operating procedures established by the NCI PDMR. All PDCs were thawed and cultured in Matrigel-coated flasks prepared with a working solution of 1X Ham's F-12 nutrient mix, without supplementation (Invitrogen, cat. 11765054), 100 U/mL penicillin-streptomycin (Invitrogen, cat. 15140122), and 2.5% Matrigel (Corning Inc., cat. 354248) for the first three passages. The 857933-349-R-J2-PDC line was cultured in 6C/Colon 1B media, which includes advanced DMEM/F-12 (Thermo Fisher Scientific, cat. 12634028), 10 mM HEPES (Thermo Fisher Scientific, cat. 15630080), 1X GlutaMAX supplement (Thermo Fisher Scientific, cat. 35050061), 0.1 mg/mL primocin (InvivoGen, cat. ant-pm-2), 10% defined fetal bovine serum, heat inactivated (HyClone Laboratories Inc., cat. SH30070.03HI), 50% L-WRN conditioned media (ATCC, cat. CRL-3276), 1.25 mM N-Acetyl-L-cysteine (Sigma-Aldrich, cat. A9165), 10 mM nicotinamide (Sigma-Aldrich, cat. N0636), 1X B-27 supplement (Thermo Fisher Scientific, cat. 17504044), 1X N-2 supplement (Thermo Fisher Scientific, cat. 17502048), 10 microM Y-27632 dihydrochloride (Tocris Bioscience, cat. 1254), and 50 ng/mL human EGF recombinant protein (Thermo Fisher Scientific, cat. PHG0311). The 485176-168-R4-J1-PDC line was cultured in Panc media, which includes all 6C/Colon 1B media components plus 100 ng/mL human FGF-10 (Thermo Fisher Scientific, cat. 100-26), 500 nM SB-431542 (Selleckchem, cat. S1067), and gastrin (Tocris, cat. 3006).
[…]

[1] = second compound 0.0316 µM, first compound 0.0316 µM
[2] = second compound 0.0316 µM, first compound 0.1 µM
[3] = second compound 0.0316 µM, first compound 0.316 µM
[4] = second compound 0.0316 µM, first compound 1 µM
[5] = second compound 0.0316 µM, first compound 3.16 µM
[6] = second compound 0.0316 µM, first compound 10 µM
[7] = second compound 0.1 µM, first compound 0.0316 µM
[8] = second compound 0.1 µM, first compound 0.1 µM
[9] = second compound 0.1 µM, first compound 0.316 µM
[10] = second compound 0.1 µM, first compound 1 µM
[11] = second compound 0.1 µM, first compound 3.16 µM
[12] = second compound 0.1 µM, first compound 10 µM
[13] = second compound 0.316 µM, first compound 0.0316 µM
[14] = second compound 0.316 µM, first compound 0.1 µM
[15] = second compound 0.316 µM, first compound 0.316 µM
[16] = second compound 0.316 µM, first compound 1 µM
[17] = second compound 0.316 µM, first compound 3.16 µM
[18] = second compound 0.316 µM, first compound 10 µM
[19] = second compound 1 µM, first compound 0.0316 µM
[20] = second compound 1 µM, first compound 0.1 µM
[21] = second compound 1 µM, first compound 0.316 µM
[22] = second compound 1 µM, first compound 1 µM
[23] = second compound 1 µM, first compound 3.16 µM
[24] = second compound 1 µM, first compound 10 µM
[25] = second compound 3.16 µM, first compound 0.0316 µM
[26] = second compound 3.16 µM, first compound 0.1 µM
[27] = second compound 3.16 µM, first compound 0.316 µM
[28] = second compound 3.16 µM, first compound 1 µM
[29] = second compound 3.16 µM, first compound 3.16 µM
[30] = second compound 3.16 µM, first compound 10 µM
[31] = second compound 10 µM, first compound 0.0316 µM
[32] = second compound 10 µM, first compound 0.1 µM
[33] = second compound 10 µM, first compound 0.316 µM
[34] = second compound 10 µM, first compound 1 µM
[35] = second compound 10 µM, first compound 3.16 µM
[36] = second compound 10 µM, first compound 10 µM
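Also: spheroids exposed to the agents for seven days before readout.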
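For viability, T/C in this document: percent viability relative to DMSO vehicle control wells taken as 100%.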

In the case of `CC(=O)O[C@H]1C(=O)[C@@]2(C)[C@H]([C@H](OC(=O)c3ccccc3)[C@]3(O)C[C@H](OC(=O)[C@H](O)[C@@H](NC(=O)c4ccccc4)c4ccccc4)C(C)=C1C3(C)C)[C@]1(OC(C)=O)CO[C@@H]1C[C@@H]2O` + CN(C)c1ccc(Nc2c3ccc(NC(=O)CCN4CCCC4)cc3nc3cc(NC(=O)CCN4CCCC4)ccc23)cc1, the IC50 (second compound 0.0316 µM) is reported as < 0.0316 µM, the IC50 (second compound 0.1 µM) is reported as < 0.0316 µM and the IC50 (second compound 0.316 µM) is reported as < 0.0316 µM. The IC50 (second compound 1 µM) was < 0.0316 µM, the IC50 (second compound 3.16 µM) was < 0.0316 µM and the IC50 (second compound 10 µM) was < 0.0316 µM. For the same compound, the viability, T/C [1] was 6.18%, the viability, T/C [2] was 3.03% and the viability, T/C [3] was 4.68%. It also gave a viability, T/C [4] of 5.91%, a viability, T/C [5] of 9.45% and a viability, T/C [6] of 14.6%. The viability, T/C [7] was 6.28%, the viability, T/C [8] was 3.31% and the viability, T/C [9] was 4.65%. For the same compound, the viability, T/C [10] was 7.21%, the viability, T/C [11] was 8.08% and the viability, T/C [12] was 13.5%. For the same compound, the viability, T/C [13] was 6.93%, the viability, T/C [14] was 3.41% and the viability, T/C [15] was 4.38%. The viability, T/C [16] was 6.89%, the viability, T/C [17] was 8.86% and the viability, T/C [18] was 12.6%. It also gave a viability, T/C [19] of 6.47%, a viability, T/C [20] of 3.38% and a viability, T/C [21] of 4.34%. For the same compound, the viability, T/C [22] was 6.41%, the viability, T/C [23] was 9.91% and the viability, T/C [24] was 12%. The viability, T/C [25] was 5.06%, the viability, T/C [26] was 3.06% and the viability, T/C [27] was 4.72%. For the same compound, the viability, T/C [28] was 6.71%, the viability, T/C [29] was 7.72% and the viability, T/C [30] was 11.3%. The viability, T/C [31] was 3.86%, the viability, T/C [32] was 2.35% and the viability, T/C [33] was 3.67%. For the same compound, the viability, T/C [34] was 4.43%, the viability, T/C [35] was 6.04% and the viability, T/C [36] was 6.46%.

With `CC(C)(O)C1CCC(Nc2ccc3ncc(-c4cccc(C(F)(F)F)c4)n3n2)CC1` (stereo unspecified) + CN(C)c1ccc(Nc2c3ccc(NC(=O)CCN4CCCC4)cc3nc3cc(NC(=O)CCN4CCCC4)ccc23)cc1 the IC50 (second compound 0.0316 µM) was > 10 µM, the IC50 (second compound 0.1 µM) was 2.94 µM and the IC50 (second compound 0.316 µM) was 3.08 µM. For the same compound, the IC50 (second compound 1 µM) was 2.09 µM, the IC50 (second compound 3.16 µM) was 1.83 µM and the IC50 (second compound 10 µM) was 0.668 µM. The viability, T/C [1] was 108%, the viability, T/C [2] was 102% and the viability, T/C [3] was 101%. It also gave a viability, T/C [4] of 95.3%, a viability, T/C [5] of 53.1% and a viability, T/C [6] of 57.9%. It also gave a viability, T/C [7] of 109%, a viability, T/C [8] of 101% and a viability, T/C [9] of 98.1%. The viability, T/C [10] was 103%, the viability, T/C [11] was 39.4% and the viability, T/C [12] was 53.4%. It also gave a viability, T/C [13] of 97.7%, a viability, T/C [14] of 100% and a viability, T/C [15] of 95.8%. It also gave a viability, T/C [16] of 110%, a viability, T/C [17] of 43.9% and a viability, T/C [18] of 53.8%. It also gave a viability, T/C [19] of 95.1%, a viability, T/C [20] of 103% and a viability, T/C [21] of 102%. It also gave a viability, T/C [22] of 97.5%, a viability, T/C [23] of 18.3% and a viability, T/C [24] of 28.3%. For the same compound, the viability, T/C [25] was 103%, the viability, T/C [26] was 98.7% and the viability, T/C [27] was 100%. The viability, T/C [28] was 106%, the viability, T/C [29] was 2.64% and the viability, T/C [30] was 1.96%. It also gave a viability, T/C [31] of 103%, a viability, T/C [32] of 104% and a viability, T/C [33] of 104%. For the same compound, the viability, T/C [34] was 20.9%, the viability, T/C [35] was 0.21% and the viability, T/C [36] was 0.8%.

With `Nc1ccn(C2OC(CO)C(O)C2(F)F)c(=O)n1` (stereo unspecified) + CN(C)c1ccc(Nc2c3ccc(NC(=O)CCN4CCCC4)cc3nc3cc(NC(=O)CCN4CCCC4)ccc23)cc1 the IC50 (second compound 0.0316 µM) was < 0.0316 µM, the IC50 (second compound 0.1 µM) was < 0.0316 µM and the IC50 (second compound 0.316 µM) was < 0.0316 µM. The IC50 (second compound 1 µM) was < 0.0316 µM, the IC50 (second compound 3.16 µM) was < 0.0316 µM and the IC50 (second compound 10 µM) was < 0.0316 µM. The viability, T/C [1] was 14%, the viability, T/C [2] was 1.18% and the viability, T/C [3] was 0.88%. It also gave a viability, T/C [4] of 0.96%, a viability, T/C [5] of 0.85% and a viability, T/C [6] of 0.89%. It also gave a viability, T/C [7] of 10.8%, a viability, T/C [8] of 2.18% and a viability, T/C [9] of 0.86%. It also gave a viability, T/C [10] of 1.06%, a viability, T/C [11] of 0.89% and a viability, T/C [12] of 1.03%. The viability, T/C [13] was 8.99%, the viability, T/C [14] was 1.42% and the viability, T/C [15] was 0.99%. For the same compound, the viability, T/C [16] was 0.97%, the viability, T/C [17] was 0.84% and the viability, T/C [18] was 0.93%. The viability, T/C [19] was 9.78%, the viability, T/C [20] was 1.73% and the viability, T/C [21] was 1.22%. The viability, T/C [22] was 1.01%, the viability, T/C [23] was 0.89% and the viability, T/C [24] was 0.91%. For the same compound, the viability, T/C [25] was 8.33%, the viability, T/C [26] was 1.17% and the viability, T/C [27] was 1.01%. It also gave a viability, T/C [28] of 0.9%, a viability, T/C [29] of 1.5% and a viability, T/C [30] of 0.99%. It also gave a viability, T/C [31] of 5.04%, a viability, T/C [32] of 1.02% and a viability, T/C [33] of 1.04%. The viability, T/C [34] was 0.83%, the viability, T/C [35] was 0.85% and the viability, T/C [36] was 0.85%.
